Literature values as cited in patent US7341711B2, “Porphyrin compounds and their use in high-field MRI” (Guerbet, priority 2004, dated 2008).
Where “and” joins values, the source holds several entries; their conditions need not be identical. Equal entries are not always repeated. Where two headings read alike, the source gives them in different places.

## O=S(=O)([O-])c1ccc(-c2c3nc(c(-c4ccc(S(=O)(=O)[O-])cc4)c4ccc([n-]4)c(-c4ccc(S(=O)(=O)[O-])cc4)c4ccc([n-]4)c(-c4ccc(S(=O)(=O)[O-])cc4)c4nc2C=C4)C=C3)cc1.[Mn+3] [MnTPPS4]
At 1.5 T
  relaxivity: 17 mmol⁻¹ s⁻¹
Field not stated
  relaxivity: ~10 mmol⁻¹ s⁻¹
In blood plasma at 0.25 T
  relaxivity: 10.7 mmol⁻¹ s⁻¹ and 12.2 mmol⁻¹ s⁻¹
